Test results taken from US20160075653A1, “NEMATICIDAL N-(PHENYLCYCLOALKYL)CARBOXAMIDES AND N-(PHENYLCYCLOALKYL)THIOCARBOXAMIDES” (BAYER CROPSCIENCE AKTIENGESELLSCHAFT, priority 2013, published 2016).

Experiment: Measurement of log P values by HPLC on reversed phase columns (methods [a] pH 2.3, [b] pH 2.7, [c] pH 7.8)
Type: physicochemical
Conditions: for chromatographic logP: reversed phase HPLC columns, pH 2.7, HPLC on reversed phase columns, read-out: logP
Description: Measurement of log P-Values:
Measurement of log P Values was Performed According EEC Directive 79/831 Annex V.A8 by HPLC (High Performance Liquid
Chromatography) on reversed phase columns with the following methods: ^[a] Measurement was done at pH 2.3 with 0.1% phosphoric acid and acetonitrile as eluent with a linear gradient from 10% acetonitrile to 95% acetonitrile. ^[b] measurement of LC-MS was done at pH 2.7 with 0.1% formic acid in water and with acetonitrile (contains 0.1% formic acid) as eluent with a linear gradient from 10% acetonitrile to 95% acetonitrile. ^[c] Measurement with LC-MS was done at pH 7.8 with 0.001 molar ammonium hydrogen carbonate solution in water as eluent with a linear gradient from 10% acetonitrile to 95% acetonitrile.
Calibration was done with linear alkan-2-ones (with 3 to 16 carbon atoms) with known log P-values (measurement of log P values using retention times with linear interpolation between successive alkanones). Lambda-max-values were determined using UV-spectra from 200 nm to 400 nm and the peak values of the chromatographic signals.

[1] = HPLC reversed phase, method [b] (pH 2.7)
[2] = HPLC on reversed phase columns, method [b], pH 2.7
[3] = HPLC reversed phase, method [c] pH 7.8
[4] = method [b], HPLC reversed phase, pH 2.7
[5] = method [c], HPLC reversed phase, pH 7.8
[6] = HPLC on reversed phase column, method [b], pH 2.7
[7] = HPLC on reversed phase column, method [c], pH 7.8

## O=C(N[C@@H]1CC[C@@H]1c1c(F)cccc1C(F)(F)F)c1cccnc1 (relative stereo) [Example 562]
[1]
  logP: 2.16^[b]

## O=C(N[C@@H]1CCC[C@@H]1c1ccc(F)c(F)c1)c1ncccc1C(F)(F)F (relative stereo) [Example 90]
[2]
  logP: 3.31^[b]

## O=C(N[C@@H]1C[C@H]1c1ccccc1)c1c(Cl)cccc1Cl (relative stereo) [Example 47]
[2]
  logP: 2.99^[b]

## CC(C)Oc1ccc([C@H]2CCC[C@H]2NC(=O)c2ccc(I)s2)cc1 (relative stereo) [Example 338]
[1]
  logP: 4.43^[b]
[3]
  logP: 4.27^[c];

## O=C(NC1CCC1c1ccc(Cl)cc1Cl)c1ccccc1Br (stereo not shown) [Example 471]
[1]
  logP: 3.92^[b]

## O=C(NC1CCC1c1ccc(Cl)cc1C(F)(F)F)c1ccccc1Br (stereo not shown) [Example 722]
[2]
  logP: 4.08^[b]

## Cc1nocc1C(=O)N[C@@H]1CCC[C@H]1c1ccc(F)c(F)c1 (relative stereo) [Example 60]
[2]
  logP: 2.78^[b]

## O=C(N[C@@H]1CC[C@@H]1c1ccccc1Cl)c1sccc1I (relative stereo) [Compound 546]
[1]
  logP: 3.72^[b]

## O=C(NC1CC1c1ccc(Cl)cc1Cl)c1ccccc1F (stereo not shown) [Example 205]
[4]
  logP: 3.66^[b]
[5]
  logP: 3.55^[c];

## Cn1nc(C(F)F)c(C(=O)NC2CC2c2ccccc2C(F)(F)F)c1Cl (stereo not shown) [Example 193]
[4]
  logP: 3.15^[b]

## O=C(NC1CCCC1c1ccccc1C(F)(F)F)c1cccnc1C(F)(F)F (stereo not shown) [Example 309]
[1]
  logP: 3.22^[b]

## O=C(NC1CC1c1ccccc1C(F)(F)F)c1cccnc1C(F)(F)F (stereo not shown) [Example 500]
[1]
  logP: 2.79^[b]

## Fc1ccc(C2CCCC2NC(=S)c2sccc2C(F)(F)F)cc1F (stereo not shown) [Example 149]
[4]
  logP: 4.59^[b]

## O=C(NC1CC1c1ccc(Cl)cc1)c1occc1Br (stereo not shown) [Example 204]
[4]
  logP: 3.04^[b]
[5]
  logP: 2.98^[c];

## O=C(NC1CCCCC1c1ccccc1C(F)(F)F)c1ccccc1C(F)(F)F (stereo not shown) [Example 374]
[1]
  logP: 4.21^[b]

## Cn1nc(C(F)F)c(C(=O)NC2CCCCC2c2ccccc2)c1Cl (stereo not shown) [Example 183]
[4]
  logP: 3.51^[b]

## Cn1cc(C(=O)NC2CCCCCC2c2ccccc2C(F)(F)F)c(C(F)F)n1 (stereo not shown) [Example 421]
[1]
  logP: 3.69^[b]

## N#Cc1ccccc1C(=O)NC1CCCC1c1ccc(F)c(F)c1 (stereo not shown) [Example 137]
[4]
  logP: 2.96^[b]

## O=C(NC1CC1c1ccc(Cl)cc1)c1c(F)cccc1C(F)(F)F (stereo not shown) [Example 270]
[1]
  logP: 3.08^[b]
[3]
  logP: 3.03^[c];

## O=C(N[C@@H]1CC[C@@H]1c1c(Cl)cccc1Cl)c1ncccc1Cl [Example 743]
Method [b] (pH 2.7)
  chromatographic logP: 3.32

## O=C(NC1CCC1c1c(Cl)cccc1Cl)c1c(F)cccc1F (stereo not shown) [Example 727]
[2]
  logP: 3.33^[b]

## O=C(NC1CCCCC1c1ccc(C(F)(F)F)cc1)c1ccccc1C(F)(F)F (stereo not shown) [Example 365]
[1]
  logP: 4.12^[b]
[3]
  logP: 4.05^[c];

## Cc1nn(C)cc1C(=O)NC1CCCCC1c1ccccc1C(F)(F)F (stereo not shown) [Example 384]
[1]
  logP: 2.87^[b]

## Cc1ncncc1C(=O)N[C@@H]1CCC[C@H]1c1ccc(F)c(F)c1 (relative stereo) [Example 104]
[2]
  logP: 2.21^[b]

## O=C(N[C@@H]1CCC[C@@H]1c1ccc(F)c(F)c1)c1ccccc1OC(F)(F)F (relative stereo) [Example 95]
[2]
  logP: 3.76^[b]

## CC(F)c1nn(C)cc1C(=O)NC1CCCC1c1ccc(F)c(F)c1 (mixture of isomers) [Example 126]
[2]
  logP: 2.84^[b]

## CC(C)Oc1ccc([C@H]2CCC[C@H]2NC(=O)c2ccccc2I)cc1 (relative stereo) [Example 333]
[1]
  logP: 3.92^[b]
[3]
  logP: 3.89^[c];

## Cn1cc(C(=O)N[C@@H]2CCC[C@@H]2c2ccc(F)c(F)c2)c(C(F)(F)F)n1 (relative stereo) [Example 92]
[2]
  logP: 2.98^[b]

## O=C(N[C@@H]1CC[C@@H]1c1ccc(Cl)cc1Cl)c1nccnc1Cl (relative stereo) [Example 676]
[6]
  logP: 3.05^[b]

## O=C(N[C@@H]1CC[C@@H]1c1ccc(Cl)cc1Cl)c1cccnc1 (relative stereo) [Example 673]
[6]
  logP: 2.23^[b]

## Cn1cc(C(=O)NC2CC2c2ccc(Br)cc2)c(C(F)(F)F)n1 (stereo not shown) [Example 25]
[2]
  logP: 3.23^[b]

## Cn1cc(C(=O)NC2CC2c2ccc(Cl)cc2)c(C(F)F)n1 (stereo not shown) [Example 151]
[4]
  logP: 2.30^[b]

## O=C(N[C@@H]1CCC[C@H]1c1ccccc1C(F)(F)F)c1cccnc1C(F)(F)F (relative stereo) [Example 289]
[1]
  logP: 3.27^[b]

## Cc1nnsc1C(=O)N[C@@H]1CCC[C@@H]1c1ccc(F)c(F)c1 (relative stereo) [Example 72]
[2]
  logP: 2.86^[b]

## Cc1nn(C)cc1C(=O)NC1CC1c1ccccc1 (stereo not shown) [Example 6]
[2]
  logP: 1.70^[b]

## O=C(N[C@@H]1CC[C@H]1c1ccc(Cl)cc1Cl)c1nccnc1Cl (relative stereo) [Example 675]
[6]
  logP: 3.43^[b]

## CCc1ccccc1C(=O)N[C@@H]1CCC[C@@H]1c1ccc(F)c(F)c1 (relative stereo) [Example 114]
[2]
  logP: 3.75^[b]

## O=C(NC1CC1c1ccc(Cl)cc1)c1ccccc1Cl (stereo not shown) [Example 198]
[4]
  logP: 3.09^[b]
[5]
  logP: 3.02^[c];

## O=C(N[C@@H]1CCC[C@@H]1c1ccc(C(F)(F)F)cc1)c1sccc1I (relative stereo) [Example 360]
[1]
  logP: 4.21^[b]
[3]
  logP: 4.16^[c];

## Cc1oncc1C(=O)N[C@@H]1CCC[C@H]1c1ccc(F)c(F)c1 (relative stereo) [Example 102]
[2]
  logP: 2.82^[b]

## O=C(N[C@@H]1CCC[C@@H]1c1ccc(F)c(F)c1)c1ccccc1Br (relative stereo) [Example 94]
[2]
  logP: 3.35^[b]

## O=C(N[C@@H]1CC[C@H]1c1cccc(F)c1C(F)(F)F)c1ccccc1I (relative stereo) [Example 590]
[1]
  logP: 3.68^[b]

## O=C(N[C@@H]1CCC[C@H]1c1ccc(F)c(F)c1)c1ccccc1I (relative stereo) [Example 131]
[4]
  logP: 3.56^[b]

## O=C(NC1CCC1c1ccccc1C(F)(F)F)c1ccccc1Cl (stereo not shown) [Example 433]
[1]
  logP: 3.01^[b]

## O=C(N[C@@H]1CC[C@H]1c1ccc(Cl)cc1C(F)(F)F)c1ccccc1[N+](=O)[O-] (relative stereo) [Example 712]
[6]
  logP: 3.61^[b]

## O=C(N[C@@H]1CC[C@@H]1c1ccc(Br)cc1C(F)(F)F)c1cccnc1C(F)(F)F (relative stereo) [Example 657]
[6]
  logP: 3.52^[b]
[7]
  logP: 3.42^[c];

## O=C(NC1CCC1c1ccc(F)cc1C(F)(F)F)c1ncccc1Cl (stereo not shown) [Compound 478]
[1]
  logP: 3.39^[b]

## Cc1nc(C)c(C(=O)NC2CCCCC2c2ccccc2C(F)(F)F)s1 (stereo not shown) [Example 392]
[1]
  logP: 3.49^[b]

## O=C(NC1CC1c1ccc(Cl)cc1)c1c(F)cccc1Cl (stereo not shown) [Example 463]
[1]
  logP: 2.83^[b]
[3]
  logP: 2.75^[c];

## O=C(NC1CC1c1ccc(Cl)cc1)c1ccccc1Cl (stereo not shown) [Example 275]
[1]
  logP: 2.77^[b]
[3]
  logP: 2.71^[c];

## Cc1nc(C)c(C(=O)NC2CCCCC2c2ccc(Cl)cc2Cl)s1 (stereo not shown) [Example 410]
[1]
  logP: 3.88^[b]

## O=C(NC1CCCCCC1c1ccccc1C(F)(F)F)c1cccnc1C(F)(F)F (stereo not shown) [Example 418]
[1]
  logP: 3.94^[b]

## O=C(NC1CCC1c1ccccc1Cl)c1cccc(Cl)c1 (stereo not shown) [Example 445]
[1]
  logP: 3.75^[b]

## Cn1cc(C(=O)NC2CCC2c2ccc(Cl)cc2Cl)c(C(F)F)n1 (single isomer, unassigned) [Preparation Example 2 trans-Isomer, trans-N-[2-(2,4-dichlorophenyl)cyclobutyl]-3-(difluoromethyl)-1-methyl-1H-pyrazole-4-carboxamide]
HPLC-MS, method letter not given
  log P: 3.26

## O=C(N[C@@H]1CC[C@@H]1c1c(Cl)cccc1Cl)c1nccnc1Cl [Example 734]
Method [b] (pH 2.7)
  chromatographic logP: 3.07

## O=C(N[C@@H]1CC[C@H]1c1ccc(Br)cc1C(F)(F)F)c1nccnc1C(F)(F)F (relative stereo) [Example 660]
[6]
  logP: 3.97^[b]
[7]
  logP: 3.87^[c];

## O=C(N[C@@H]1C[C@H]1c1ccccc1Cl)c1c(Cl)cccc1Cl (relative stereo) [Example 50]
[2]
  logP: 3.32^[b]

## O=C(NC1CCC1c1ccc(Cl)cc1C(F)(F)F)c1ccccc1Br (stereo not shown) [Example 723]
[2]
  logP: 3.80^[b]

## Cn1cc(C(=O)NC2CC2c2ccccc2C(F)(F)F)c(C(F)F)n1 (stereo not shown) [Example 234]
[4]
  logP: 2.64^[b]

## O=C(N[C@@H]1CCC[C@@H]1c1ccc(F)c(F)c1)c1sccc1Br (relative stereo) [Example 96]
[2]
  logP: 3.79^[b]

## O=C(NC1CCCC1c1ccc(Cl)cc1)c1cccnc1Cl (stereo not shown) [Example 281]
[1]
  logP: 2.81^[b]

## CC(F)c1nn(C)cc1C(=O)N[C@@H]1CCC[C@@H]1c1ccc(F)c(F)c1 (relative stereo) [Example 53]
[2]
  logP: 2.62^[b]

## O=C(NC1CCCCC1c1c(F)cccc1F)c1ccccc1C(F)(F)F (stereo not shown) [Example 399]
[1]
  logP: 3.87^[b]

## O=C(NC1CCC1c1ccccc1C(F)(F)F)c1ncc(C(F)(F)F)cc1Cl (stereo not shown) [Example 437]
[1]
  logP: 3.88^[b]

## O=C(N[C@@H]1CCC[C@@H]1c1ccc(C(F)(F)F)cc1)c1ccccc1[N+](=O)[O-] (relative stereo) [Example 306]
[1]
  logP: 3.31^[b]
[3]
  logP: 3.27^[c];

## O=C(NC1CCCCC1c1ccc(Cl)cc1)c1cccnc1Cl (stereo not shown) [Example 370]
[1]
  logP: 2.99^[b]
